The values that follow come from patent US8871738B2, “Fused bicyclic oxazolidinone CETP inhibitor” (Merck Sharp & Dohme Corp., priority 2011, dated 2014).

The first assay deals with endogenous CETP from serum (Homo sapiens (Human), UniProt P11597). Kind of assay: RTA assay in 95% human serum (CETP-catalyzed CE and TG transfer, endogenous CETP). The format is biochemical. Conditions: RTA assay in 95% human serum; read-out: IC50.
Sequence of endogenous CETP from serum (P11597 18-493 limits assumed): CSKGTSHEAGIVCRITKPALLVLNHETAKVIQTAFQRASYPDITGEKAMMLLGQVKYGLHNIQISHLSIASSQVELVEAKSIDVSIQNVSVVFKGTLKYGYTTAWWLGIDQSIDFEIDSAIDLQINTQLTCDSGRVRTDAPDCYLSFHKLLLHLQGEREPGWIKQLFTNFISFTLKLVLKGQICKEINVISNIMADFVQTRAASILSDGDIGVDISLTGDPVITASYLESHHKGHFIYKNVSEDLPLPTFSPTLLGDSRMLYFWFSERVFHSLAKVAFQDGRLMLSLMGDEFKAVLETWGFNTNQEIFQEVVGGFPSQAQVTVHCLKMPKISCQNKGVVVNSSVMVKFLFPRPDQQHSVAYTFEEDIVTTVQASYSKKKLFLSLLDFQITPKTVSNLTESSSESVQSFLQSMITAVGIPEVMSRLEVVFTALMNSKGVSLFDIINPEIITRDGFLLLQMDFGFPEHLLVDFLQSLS
As to `COc1ccc(C2CCC(C(=O)O)CC2)cc1-c1ccc(C(F)(F)F)cc1[C@@H]1CC[C@H]2[C@@H](c3cc(C)cc(C(F)(F)F)c3)OC(=O)N12` (stereo partly drawn) [Example 52, 4-[6-methoxy-2′-{(1R,5S,7aS)-1-[3-methyl-5-(trifluoromethyl)phenyl]-3-oxotetrahydro-1H-pyrrolo[1,2-c][1,3]oxazol-5-yl}-4′-(trifluoromethyl)biphenyl-3-yl]cyclohexanecarboxylic acid], the IC50 amounted to 260 nM.

For `COc1cc(F)c(-c2ccc(C(=O)O)cc2C)cc1-c1cnc(C(F)(F)F)cc1[C@@H]1CC[C@H]2[C@@H](c3cc(C(F)(F)F)cc(C(F)(F)F)c3)OC(=O)N12` [Example 53, 5′-[4-{(1R,5S,7aS)-1-[3,5-bis(trifluoromethyl)phenyl]-3-oxotetrahydro-1H-pyrrolo[1,2-c][1,3]oxazol-5-yl}-6-(trifluoromethyl)pyridin-3-yl]-2′-fluoro-4′-methoxy-2-methylbiphenyl-4-carboxylic acid], the IC50 amounted to 191 nM.

On to `COc1ncc(-c2ccc(C(=O)O)cc2C)cc1-c1ccc(C(F)(F)F)cc1[C@@H]1CC[C@H]2[C@@H](c3cc(C)cc(C(F)(F)F)c3)OC(=O)N12` [Example 55, 4-{6-methoxy-5-[2-{(1R,5S,7aS)-1-[3-methyl-5-(trifluoromethyl)phenyl]-3-oxotetrahydro-1H-pyrrolo[1,2-c][1,3]oxazol-5-yl}-4-(trifluoromethyl)phenyl]pyridin-3-yl}-3-methylbenzoic acid], for which the IC50 was 85 nM.

`COc1ncc(-c2c(C)cc(C(=O)O)cc2C)cc1-c1ccc(C(F)(F)F)cc1[C@@H]1CC[C@H]2[C@@H](c3cc(C(F)(F)F)cc(C(F)(F)F)c3)OC(=O)N12` [Example 56, 4-{5-[2-{(1R,5S,7aS)-1-[3,5-bis(trifluoromethyl)phenyl]-3-oxotetrahydro-1H-pyrrolo[1,2-c][1,3]oxazol-5-yl}-4-(trifluoromethyl)phenyl]-6-methoxypyridin-3-yl}-3,5-dimethylbenzoic acid]: the IC50 is 47 nM.

Turning to `COc1ccc([C@@H]2C[C@@H](O)[C@@H](O)C2)cc1-c1ccc(C(F)(F)F)cc1[C@@H]1CC[C@H]2[C@@H](c3cc(C(F)(F)F)cc(C(F)(F)F)c3)OC(=O)N12` [Example 58, (1R,5S,7aS)-1-[3,5-bis(trifluoromethyl)phenyl]-5-{5′-[(1s,3R,4S)-3,4-dihydroxycyclopentyl]-2′-methoxy-4-(trifluoromethyl)biphenyl-2-yl}tetrahydro-1H-pyrrolo[1,2-c][1,3]oxazol-3-one], the IC50 was determined as 418 nM.

Consider `Cc1cc(C(=O)O)ccc1-c1cnc(C)c(-c2ccc(C(F)(F)F)cc2[C@@H]2CC[C@H]3[C@@H](c4cc(C(F)(F)F)cc(C(F)(F)F)c4)OC(=O)N23)c1` [Example 66, 4-{5-[2-{(1R,5S,7aS)-1-[3,5-bis(trifluoromethyl)phenyl]-3-oxotetrahydro-1H-pyrrolo[1,2-c][1,3]oxazol-5-yl}-4-(trifluoromethyl)phenyl]-6-methylpyridin-3-yl}-3-methylbenzoic acid], for which the IC50 came out at 1290 nM.

`COc1ncc(-c2ccc(C(=O)O)cc2C)cc1-c1ccc(C(F)(F)F)cc1[C@@H]1C=C[C@H]2[C@@H](c3cc(C(F)(F)F)cc(C(F)(F)F)c3)OC(=O)N12` [Example 67, 4-(5-(2-((1R,5S,7aS)-1-(3,5-bis(trifluoromethyl)phenyl)-3-oxo-1,3,5,7a-tetrahydropyrrolo[1,2-c]oxazol-5-yl)-4-(trifluoromethyl)phenyl)-6-methoxypyridin-3-yl)-3-methylbenzoic acid]: the IC50 is 199 nM.

With `COc1ccc(-c2ccc(C(=O)O)cc2C)cc1-c1ncc(C(F)(F)F)cc1[C@@H]1C=C[C@H]2[C@@H](c3cc(C(F)(F)F)cc(C(F)(F)F)c3)OC(=O)N12` [Example 68, 3′-(3-((1R,5S,7aS)-1-(3,5-bis(trifluuoromethyl)phenyl)-3-oxo-1,3,5,7a-tetrahydropyrrolo[1,2-c]oxazol-5-yl)-5-(trifluoromethyl)pyridin-2-yl)-4′-methoxy-2-methyl-[1,1′-biphenyl]-4-carboxylic acid], the IC50 is 424 nM.

`COc1ncc(-c2ccc(C(=O)O)cc2C)cc1-c1ncc(C(F)(F)F)cc1[C@@H]1C=C[C@H]2[C@@H](c3cc(C(F)(F)F)cc(C(F)(F)F)c3)OC(=O)N12` [Example 69, 4-(3-((1R,5S,7aS)-1-(3,5-bis(trifluoromethyl)phenyl)-3-oxo-1,3,5,7a-tetrahydropyrrolo[1,2-c]oxazol-5-yl)-2′-methoxy-5-(trifluoromethyl)-[2,3′-bipyridin]-5′-yl)-3-methylbenzoic acid]: the IC50 is 456 nM.

Turning to `COc1ncc(-c2c(C)cc(C(=O)O)cc2C)cc1-c1ncc(C(F)(F)F)cc1[C@@H]1CC[C@H]2[C@@H](c3cc(C(F)(F)F)cc(C(F)(F)F)c3)OC(=O)N12` [Example 70, 4-[3-{(1R,5S,7aS)-1-[3,5-bis(trifluoromethyl)phenyl]-3-oxotetrahydro-1H-pyrrolo[1,2-c][1,3]oxazol-5-yl}-2′-methoxy-5-(trifluoromethyl)-2,3′-bipyridin-5′-yl]-3,5-dimethylbenzoic acid], the IC50 stood at 751 nM.

On to `COc1ccc([C@@H]2CC(=O)N[C@H]2C)cc1-c1ccc(C(F)(F)F)cc1[C@@H]1CC[C@H]2[C@@H](c3cc(C(F)(F)F)cc(C(F)(F)F)c3)OC(=O)N12` [Example 76, (1R,5S,7aS)-1-[3,5-bis(trifluoromethyl)phenyl]-5-{2′-methoxy-5′-[(2S,3S)-2-methyl-5-oxopyrrolidin-3-yl]-4-(trifluoromethyl)biphenyl-2-yl}tetrahydro-1H-pyrrolo[1,2-c][1,3]oxazol-3-one], for which the IC50 was 466 nM.

Still in this assay, the particulars now being: RTA assay, 95% human serum; read-out: RTA (95% HS).
Regarding `COc1ccc(CCc2n[nH]c(=O)o2)cc1-c1ccc(C(F)(F)F)cc1[C@@H]1CCC[C@H]2[C@@H](c3cc(C(F)(F)F)cc(C(F)(F)F)c3)OC(=O)N12` [Example 80, (1R,5S,8aS)-1-[3,5-bis(trifluoromethyl)phenyl]-5-{2′-methoxy-5′-[2-(5-oxo-4,5-dihydro-1,3,4-oxadiazol-2-yl)ethyl]-4-(trifluoromethyl)biphenyl-2-yl}hexahydro[1,3]oxazolo[3,4-a]pyridin-3-one], the IC50 turned out to be 942 nM.

As to `COc1ccc(CCc2nnc(N)o2)cc1-c1ccc(C(F)(F)F)cc1[C@@H]1CCC[C@H]2[C@@H](c3cc(C(F)(F)F)cc(C(F)(F)F)c3)OC(=O)N12` [Example 82, (1R,5S,8aS)-5-{5′-[2-(5-amino-1,3,4-oxadiazol-2-yl)ethyl]-2′-methoxy-4-(trifluoromethyl)biphenyl-2-yl}-1-[3,5-bis(trifluoromethyl)phenyl]hexahydro[1,3]oxazolo[3,4-a]pyridin-3-one], the IC50 came to 1320 nM.

Test system in another assay: not given
Experiment: not given
To be noted: patients treated with anacetrapib along with baseline statin therapy compared with just a statin; cited from earlier work.
In the case of `COc1cc(F)c(C(C)C)cc1-c1ccc(C(F)(F)F)cc1CN1C(=O)O[C@H](c2cc(C(F)(F)F)cc(C(F)(F)F)c2)[C@@H]1C` [anacetrapib], the “decrease of LDL-C” value was 40% and the “increase of HDL-C” value is 138%.
